In the NIST ThermoML archive (doi:10.1016/j.jct.2013.10.031):
± gives the expanded uncertainty stated by the source.

Assay: wn = mass fraction of the nth substance listed
Conditions: Gas, Burnett expansion method

FCC(F)(F)F [1,1,1,2-tetrafluoroethane] + CCC
Conditions	mass density [kg/m3]
291.04 K, 382.5 kPa, w2 = 0.6	9.6512 ± 0.55
291.04 K, 497.9 kPa, w2 = 0.6	12.8332 ± 0.57
291.04 K, 818.1 kPa, w2 = 0.6	22.6914 ± 0.67
291.06 K, 178.7 kPa, w2 = 0.65	4.1993 ± 0.49
291.06 K, 235.4 kPa, w2 = 0.65	5.5839 ± 0.5
291.06 K, 309.1 kPa, w2 = 0.65	7.425 ± 0.51
291.06 K, 404.2 kPa, w2 = 0.65	9.8733 ± 0.53
291.06 K, 525 kPa, w2 = 0.65	13.1287 ± 0.57
291.06 K, 642.6 kPa, w2 = 0.6	17.0639 ± 0.63
291.08 K, 675.9 kPa, w2 = 0.65	17.4564 ± 0.6
291.99 K, 927 kPa, w2 = 0.5	28.4165 ± 0.77
292 K, 732.8 kPa, w2 = 0.5	21.3324 ± 0.72
292.01 K, 193.1 kPa, w2 = 0.5	5.0866 ± 0.55
292.01 K, 254.3 kPa, w2 = 0.5	6.7756 ± 0.56
292.01 K, 334.3 kPa, w2 = 0.5	9.02529 ± 0.58
292.01 K, 437.9 kPa, w2 = 0.5	12.0223 ± 0.6
292.01 K, 569.6 kPa, w2 = 0.5	16.0141 ± 0.64
292.03 K, 202.8 kPa, w2 = 0.4	5.83306 ± 0.61
292.03 K, 587.9 kPa, w2 = 0.4	18.3639 ± 0.73
292.03 K, 753.1 kPa, w2 = 0.4	24.4617 ± 0.81
292.03 K, 950.3 kPa, w2 = 0.4	32.5844 ± 0.86
292.04 K, 266.5 kPa, w2 = 0.4	7.76977 ± 0.62
292.04 K, 348.8 kPa, w2 = 0.4	10.3497 ± 0.65
292.04 K, 454.4 kPa, w2 = 0.4	13.7862 ± 0.68
292.1 K, 669.6 kPa, w2 = 0.45	20.2125 ± 0.72
292.1 K, 852.9 kPa, w2 = 0.45	26.9241 ± 0.77
292.11 K, 399.4 kPa, w2 = 0.45	11.3911 ± 0.63
292.11 K, 519.4 kPa, w2 = 0.45	15.1737 ± 0.67
292.12 K, 176.3 kPa, w2 = 0.45	4.81956 ± 0.57
292.12 K, 232.3 kPa, w2 = 0.45	6.41979 ± 0.58
292.12 K, 305.2 kPa, w2 = 0.45	8.55159 ± 0.6
295.06 K, 496 kPa, w2 = 0.6	12.529 ± 0.56
295.06 K, 537 kPa, w2 = 0.55	14.2738 ± 0.6
295.06 K, 692.2 kPa, w2 = 0.55	18.98 ± 0.66
295.06 K, 881.4 kPa, w2 = 0.55	25.2378 ± 0.7
295.07 K, 315.8 kPa, w2 = 0.55	8.0723 ± 0.54
295.07 K, 641.4 kPa, w2 = 0.6	16.6596 ± 0.61
295.07 K, 820 kPa, w2 = 0.6	22.1527 ± 0.65
295.08 K, 167 kPa, w2 = 0.6	4.0072 ± 0.49
295.08 K, 220.6 kPa, w2 = 0.6	5.3286 ± 0.5
295.08 K, 240.3 kPa, w2 = 0.55	6.0706 ± 0.53
295.08 K, 380.5 kPa, w2 = 0.6	9.4217 ± 0.53
295.08 K, 413.2 kPa, w2 = 0.55	10.7336 ± 0.57
295.08 K, 929.7 kPa, w2 = 0.65	25.1362 ± 0.67
295.09 K, 290.3 kPa, w2 = 0.6	7.0853 ± 0.51
295.09 K, 571.2 kPa, w2 = 0.65	14.2158 ± 0.57
295.09 K, 733.9 kPa, w2 = 0.65	18.9032 ± 0.63
295.1 K, 440.4 kPa, w2 = 0.65	10.6904 ± 0.54
295.11 K, 337.1 kPa, w2 = 0.65	8.0394 ± 0.51
295.12 K, 195 kPa, w2 = 0.65	4.5466 ± 0.49
295.12 K, 256.9 kPa, w2 = 0.65	6.0457 ± 0.49
296.03 K, 914.3 kPa, w2 = 0.45	28.6491 ± 0.77
296.04 K, 429.5 kPa, w2 = 0.45	12.1212 ± 0.62
296.04 K, 558.2 kPa, w2 = 0.45	16.146 ± 0.66
296.04 K, 718.9 kPa, w2 = 0.45	21.5073 ± 0.73
296.05 K, 189.8 kPa, w2 = 0.45	5.12847 ± 0.56
296.05 K, 250.1 kPa, w2 = 0.45	6.83136 ± 0.58
296.05 K, 328.4 kPa, w2 = 0.45	9.09958 ± 0.59
296.06 K, 874.4 kPa, w2 = 0.5	25.9625 ± 0.72
296.07 K, 179.9 kPa, w2 = 0.5	4.64758 ± 0.54
296.07 K, 236.8 kPa, w2 = 0.5	6.1908 ± 0.55
296.07 K, 407 kPa, w2 = 0.5	10.9846 ± 0.58
296.07 K, 529.9 kPa, w2 = 0.5	14.6321 ± 0.62
296.07 K, 684.5 kPa, w2 = 0.5	19.4905 ± 0.68
296.15 K, 854.3 kPa, w2 = 0.4	27.6875 ± 0.83
296.15 K, 1071.2 kPa, w2 = 0.4	36.8808 ± 0.9
296.16 K, 518.5 kPa, w2 = 0.4	15.6041 ± 0.68
296.16 K, 669.4 kPa, w2 = 0.4	20.7854 ± 0.74
296.17 K, 231.5 kPa, w2 = 0.4	6.60203 ± 0.6
296.17 K, 304.4 kPa, w2 = 0.4	8.79413 ± 0.62
296.17 K, 398.4 kPa, w2 = 0.4	11.7141 ± 0.64
297.08 K, 311 kPa, w2 = 0.5	8.24631 ± 0.56
299.03 K, 1039.9 kPa, w2 = 0.55	30.269 ± 0.74
299.04 K, 190.4 kPa, w2 = 0.6	4.5212 ± 0.49
299.04 K, 220.4 kPa, w2 = 0.55	5.4755 ± 0.52
299.04 K, 251 kPa, w2 = 0.6	6.0118 ± 0.5
299.04 K, 290.2 kPa, w2 = 0.55	7.2808 ± 0.53
299.04 K, 330.1 kPa, w2 = 0.6	7.994 ± 0.51
299.04 K, 380.6 kPa, w2 = 0.55	9.6815 ± 0.55
299.04 K, 432.1 kPa, w2 = 0.6	10.6297 ± 0.54
299.04 K, 496.4 kPa, w2 = 0.55	12.8736 ± 0.58
299.04 K, 561.9 kPa, w2 = 0.6	14.1346 ± 0.57
299.04 K, 724.4 kPa, w2 = 0.6	18.7949 ± 0.62
299.04 K, 824.2 kPa, w2 = 0.55	22.7626 ± 0.69
299.05 K, 180.8 kPa, w2 = 0.65	4.1345 ± 0.47
299.05 K, 238.4 kPa, w2 = 0.65	5.4977 ± 0.48
299.05 K, 313.5 kPa, w2 = 0.65	7.3105 ± 0.49
299.05 K, 410.5 kPa, w2 = 0.65	9.7208 ± 0.52
299.05 K, 534.3 kPa, w2 = 0.65	12.9262 ± 0.55
299.05 K, 642.9 kPa, w2 = 0.55	17.1183 ± 0.62
299.06 K, 689.6 kPa, w2 = 0.65	17.1876 ± 0.59
299.06 K, 880.4 kPa, w2 = 0.65	22.8543 ± 0.62
299.06 K, 922.6 kPa, w2 = 0.6	24.9906 ± 0.66
299.92 K, 198.1 kPa, w2 = 0.5	5.06523 ± 0.54
299.92 K, 261.1 kPa, w2 = 0.5	6.74709 ± 0.54
299.92 K, 343.5 kPa, w2 = 0.5	8.9873 ± 0.56
299.92 K, 449.9 kPa, w2 = 0.5	11.9714 ± 0.58
299.92 K, 585.2 kPa, w2 = 0.5	15.9465 ± 0.62
299.92 K, 754.7 kPa, w2 = 0.5	21.2412 ± 0.68
299.93 K, 961.3 kPa, w2 = 0.5	28.294 ± 0.76
300.04 K, 162.1 kPa, w2 = 0.4	4.47962 ± 0.58
300.04 K, 213.8 kPa, w2 = 0.4	5.96699 ± 0.58
300.04 K, 369.1 kPa, w2 = 0.4	10.5874 ± 0.62
300.04 K, 481.6 kPa, w2 = 0.4	14.1031 ± 0.65
300.04 K, 624.3 kPa, w2 = 0.4	18.786 ± 0.7
300.04 K, 801.2 kPa, w2 = 0.4	25.0237 ± 0.77
300.04 K, 1014.7 kPa, w2 = 0.4	33.3323 ± 0.82
300.05 K, 281.4 kPa, w2 = 0.4	7.94819 ± 0.6
300.28 K, 1155.2 kPa, w2 = 0.45	37.6831 ± 0.87
300.3 K, 250.1 kPa, w2 = 0.45	6.74559 ± 0.58
300.3 K, 328.7 kPa, w2 = 0.45	8.98533 ± 0.58
300.3 K, 430.2 kPa, w2 = 0.45	11.9689 ± 0.61
300.3 K, 560 kPa, w2 = 0.45	15.9432 ± 0.65
300.3 K, 722.6 kPa, w2 = 0.45	21.2369 ± 0.7
300.3 K, 921.7 kPa, w2 = 0.45	28.2885 ± 0.8
303 K, 206 kPa, w2 = 0.65	4.6675 ± 0.47
303 K, 271.6 kPa, w2 = 0.65	6.2064 ± 0.48
303 K, 356.7 kPa, w2 = 0.65	8.2528 ± 0.49
303 K, 466.3 kPa, w2 = 0.65	10.974 ± 0.52
303 K, 605.7 kPa, w2 = 0.65	14.5921 ± 0.55
303.01 K, 228 kPa, w2 = 0.55	5.5856 ± 0.51
303.01 K, 513.7 kPa, w2 = 0.55	13.1325 ± 0.56
303.01 K, 665.4 kPa, w2 = 0.55	17.4628 ± 0.61
303.01 K, 780 kPa, w2 = 0.65	19.4028 ± 0.6
303.01 K, 853.2 kPa, w2 = 0.55	23.2201 ± 0.68
303.02 K, 300.2 kPa, w2 = 0.55	7.4272 ± 0.52
303.02 K, 393.7 kPa, w2 = 0.55	9.876 ± 0.54
303.02 K, 1078.8 kPa, w2 = 0.55	30.8763 ± 0.69
303.03 K, 991 kPa, w2 = 0.65	25.7988 ± 0.64
303.1 K, 231.6 kPa, w2 = 0.6	5.4683 ± 0.49
303.1 K, 304.9 kPa, w2 = 0.6	7.2713 ± 0.5
303.1 K, 399.8 kPa, w2 = 0.6	9.6687 ± 0.52
303.1 K, 521.7 kPa, w2 = 0.6	12.8566 ± 0.55
303.1 K, 675.5 kPa, w2 = 0.6	17.0956 ± 0.59
303.1 K, 865.6 kPa, w2 = 0.6	22.7325 ± 0.66
303.11 K, 1092.1 kPa, w2 = 0.6	30.2268 ± 0.71
304.1 K, 860.4 kPa, w2 = 0.4	26.6525 ± 0.78
304.1 K, 1087.7 kPa, w2 = 0.4	35.5024 ± 0.83
304.11 K, 174.8 kPa, w2 = 0.4	4.77108 ± 0.57
304.11 K, 397.4 kPa, w2 = 0.4	11.2764 ± 0.62
304.11 K, 518.4 kPa, w2 = 0.4	15.0206 ± 0.65
304.11 K, 671.1 kPa, w2 = 0.4	20.0084 ± 0.7
304.12 K, 230.5 kPa, w2 = 0.4	6.35521 ± 0.58
304.12 K, 303.2 kPa, w2 = 0.4	8.46542 ± 0.59
304.18 K, 860.4 kPa, w2 = 0.5	24.4745 ± 0.71
304.19 K, 302.4 kPa, w2 = 0.5	7.77376 ± 0.55
304.19 K, 396.5 kPa, w2 = 0.5	10.3551 ± 0.57
304.19 K, 517.4 kPa, w2 = 0.5	13.7935 ± 0.6
304.19 K, 670.5 kPa, w2 = 0.5	18.3734 ± 0.64
304.19 K, 1088.7 kPa, w2 = 0.5	32.6005 ± 0.78
304.23 K, 1142.8 kPa, w2 = 0.45	36.7316 ± 0.82
304.24 K, 907.2 kPa, w2 = 0.45	27.5748 ± 0.78
304.25 K, 248 kPa, w2 = 0.45	6.57513 ± 0.57
